What was measured:
[1] = target: T1, human carbonic anhydrase IX (Homo sapiens, UniProt Q16790); experiment: Human carbonic anhydrase IX colorimetric (p-nitrophenyl acetate) inhibition assay; format: biochemical; conditions: mean ± SEM, three independent experiments in triplicate; read-out: CA IX (IC50)
T1 construct: purchased Sino Biological Inc, Beijing, China
Method: (§1) In brief, the reaction mixture contained 60 μL of 50 mM Tris-sulfate buffer (pH 7.6, containing 0.1 mM ZnCl2),10 μL (0.5 mM) of the test compound in 1% DMSO, and 10 μL of human carbonic anhydrase II and IX (Sino Biological Inc, Beijing, China). All the ingredients were mixed well and pre-incubated at 25°C for 10 min. Substrate p-nitrophenyl acetate was prepared as a 6 mM stock solution using 5% of acetonitrile in buffer and was used fresh. […] The total assay volume was adjusted to 100 μL and further incubated at 37°C for 30 min. Furthermore, all the ingredients were mixed properly, and absorbance was measured. […] The results reported are the mean of triplicate experiments (±SEM) and expressed IC50 values, which were calculated.

mice = experiment: Rotarod neurotoxicity screening; format: in vivo, male Swiss albino mice; conditions: for Neurotoxicity dose (mg/kg) 0.5 h / Neurotoxicity dose (mg/kg) 4 h: rotarod, oral doses 30, 100, 300 mg/kg; for Neurotoxicity (rotarod test), result in words: at the highest dose (300 mg/kg)
Method: The rotarod test, as described in the literature, was used to evaluate neurotoxicity (NT) in mice. In brief, six mice (one group) were trained to balance on a spinning rod (3 cm diameter and 6 rpm speed) to familiarize with the rotarod apparatus (Orchid Scientific, India). Each mouse underwent three trials to remain on the rotating rod for over 1 minute, with the experiment’s cutoff time (180 s) remaining constant. Different pre-oral (p.o.) doses of test and standard substances were administered to the trained animals.

[2] = target: T2, human carbonic anhydrase II (Homo sapiens, UniProt P00918); experiment: Human carbonic anhydrase II colorimetric (p-nitrophenyl acetate) inhibition assay; format: biochemical; conditions: mean ± SEM, three independent experiments in triplicate; read-out: CA II (IC50)
T2 construct: purchased Sino Biological Inc, Beijing, China
Method: as §1

PTZ-induced seizures = experiment: Subcutaneous pentylenetetrazole (sc-PTZ) test; format: in vivo, male Swiss albino mice; conditions: for Minimum active dose (mg/kg) Sc-PTZ 0.5 h / Minimum active dose (mg/kg) Sc-PTZ 4 h: oral, lowest dose active in half or more of the mice, n = 6;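 for % protection Sc-PTZ 0.5 h: percent reduction of the test group versus the control group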;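 for % protection Sc-PTZ 4 h: percent reduction of the test group versus the control group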
MES-induced seizures = experiment: Maximal electroshock-induced seizure (MES) test; format: in vivo, male Swiss albino mice; conditions: for Minimum active dose (mg/kg) MES 0.5 h / Minimum active dose (mg/kg) MES 4 h: oral, lowest dose active in half or more of the mice, n = 6;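 for % protection MES 0.5 h: percent reduction of the test group versus the control group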;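 for % protection MES 4 h: percent reduction of the test group versus the control group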
induced seizures = experiment: Anticonvulsant screening (MES and sc-PTZ), outcome recovery/death

Structure (SMILES) | IC50 [1] | Neurotoxicity dose (mg/kg) 0.5 h (mice) | Neurotoxicity dose (mg/kg) 4 h (mice) | IC50 [2] | % protection Sc-PTZ 0.5 h (PTZ-induced seizures; 300 mg/kg oral) | % protection Sc-PTZ 4 h (PTZ-induced seizures; 300 mg/kg oral) | Minimum active dose (mg/kg) Sc-PTZ 0.5 h (PTZ-induced seizures) | Minimum active dose (mg/kg) Sc-PTZ 4 h (PTZ-induced seizures) | % protection MES 0.5 h (MES-induced seizures; 100 mg/kg oral) | % protection MES 4 h (MES-induced seizures; 100 mg/kg oral) | % protection MES 0.5 h (MES-induced seizures; 300 mg/kg oral) | % protection MES 4 h (MES-induced seizures; 300 mg/kg oral) | Minimum active dose (mg/kg) MES 0.5 h (MES-induced seizures) | Minimum active dose (mg/kg) MES 4 h (MES-induced seizures) | Recovery/death (induced seizures; 30 mg/kg oral) | Recovery/death (induced seizures; 100 mg/kg oral) | Recovery/death (induced seizures; 300 mg/kg oral) | Neurotoxicity (rotarod test), result in words (mice) | % protection Sc-PTZ 0.5 h (PTZ-induced seizures; 100 mg/kg oral) | % protection Sc-PTZ 4 h (PTZ-induced seizures; 100 mg/kg oral)
COc1ccc(C(=O)Nc2nncs2)cc1OCCN1CCCC1 [Compound 7c, 4-Methoxy-3-(2-(pyrrolidin-1-yl)ethoxy)-N-(1,3,4-thiadiazol-2-yl)benzamide] | 640 ± 40 nM | - (The indication - (dash) denotes a lack of action at the maximum dose supplied (300 mg/kg)) | - (The indication - (dash) denotes a lack of action at the maximum dose supplied (300 mg/kg)) | 690 ± 20 nM | 35.38% | 36.75% | 300 mg/kg | 300 mg/kg | 24.61% | 32.30% | 35.38% | 49.23% | 100 mg/kg | 100 mg/kg | Recovery | Recovery | Recovery | – | – | –
COc1ccc(C(=O)Nc2nncs2)cc1OCCN1CCCCC1 [Compound 7b, 4-Methoxy-3-(2-(piperidin-1-yl)ethoxy)-N-(1,3,4-thiadiazol-2-yl)benzamide] | 730 ± 20 nM | – | – | 740 ± 30 nM | 23.07% | 32.21% | 300 mg/kg | 300 mg/kg | 29.23% | – | – | 47.69% | 100 mg/kg | 300 mg/kg | Recovery | Recovery | Recovery | – | – | –
CC(=O)Nc1nnc(S(N)(=O)=O)s1 [Acetazolamide, reference compound] | – | - (The indication - (dash) denotes a lack of action at the maximum dose supplied (300 mg/kg)) | - (The indication - (dash) denotes a lack of action at the maximum dose supplied (300 mg/kg)) | – | – | – | 100 mg/kg | 100 mg/kg | 66.15% | 58.46% | – | – | 100 mg/kg | 100 mg/kg | – | Recovery | – | no neurotoxicity | 73.13% | 58.46%
O=C(Nc1nncs1)c1cccc(OCCN2CCCC2)c1 [Compound 6c, 3-(2-(pyrrolidin-1-yl)ethoxy)-N-(1,3,4-thiadiazol-2-yl)benzamide] | 470 ± 20 nM | - (The indication - (dash) denotes a lack of action at the maximum dose supplied (300 mg/kg)) | - (The indication - (dash) denotes a lack of action at the maximum dose supplied (300 mg/kg)) | – | 29.26% | 40.21% | 100 mg/kg | 300 mg/kg | 26.15% | 35.38% | 38.46% | 46.13% | 100 mg/kg | 100 mg/kg | Recovery | Recovery | Recovery | – | 33.81% | –
CCCC(CCC)C(=O)O [Sodium valproate, reference compound] | – | - (The indication - (dash) denotes a lack of action at the maximum dose supplied (300 mg/kg)) | - (The indication - (dash) denotes a lack of action at the maximum dose supplied (300 mg/kg)) | – | 77.72% | 63.03% | 300 mg/kg | 300 mg/kg | – | – | 72.30% | 63.07% | 300 mg/kg | 300 mg/kg | – | – | Recovery | no neurotoxicity | – | –
O=C(Nc1nncs1)c1cccc(OCCN2CCCCC2)c1 [Compound 6b, 3-(2-(piperidin-1-yl)ethoxy)-N-(1,3,4-thiadiazol-2-yl)benzamide] | 230 ± 40 nM | - (The indication - (dash) denotes a lack of action at the maximum dose supplied (300 mg/kg)) | - (The indication - (dash) denotes a lack of action at the maximum dose supplied (300 mg/kg)) | – | 10.20% | 34.17% | 300 mg/kg | 300 mg/kg | 30.76% | – | 41.53% | 50.76% | 100 mg/kg | 300 mg/kg | Recovery | Recovery | Recovery | – | – | –
O=C(Nc1nncs1)c1cccc(OCCN2CCOCC2)c1 [Compound 6a, 3-(2-morpholinoethoxy)-N-(1,3,4-thiadiazol-2-yl)benzamide] | 400 ± 50 nM | - (The indication - (dash) denotes a lack of action at the maximum dose supplied (300 mg/kg)) | - (The indication - (dash) denotes a lack of action at the maximum dose supplied (300 mg/kg)) | – | – | 19.08% | - (The indication - (dash) denotes a lack of action at the maximum dose supplied (300 mg/kg)) | 300 mg/kg | 18.46% | – | 30.76% | 43.07% | 100 mg/kg | 300 mg/kg | Recovery | Recovery | Recovery | – | – | –
COc1ccc(C(=O)Nc2nncs2)cc1OCCN1CCOCC1 [Compound 7a, 4-Methoxy-3-(2-morpholinoethoxy)-N-(1,3,4-thiadiazol-2-yl)benzamide] | 880 ± 40 nM | – | – | 970 ± 50 nM | 16.64% | 15.38% | 300 mg/kg | 300 mg/kg | 16.92% | – | – | 40% | 100 mg/kg | 300 mg/kg | Recovery | Recovery | Recovery | – | – | –

Reference: PMC11861159, “Design, synthesis, and in vitro, in vivo, and in silico evaluation of novel substituted 1,3,4-thiadiazole derivatives as anticonvulsant agents” (Frontiers in Chemistry, 2025)
